Reference: US12319676B2, “Substituted amide compounds useful as farnesoid X receptor modulators” (BRISTOL-MYERS SQUIBB COMPANY, priority 2019, dated 2025)

target: T1, human FXR (Homo sapiens, UniProt Q96RI1); assay: transient human FXR/Gal4-luciferase reporter assay; type: cell-based; details: Gal4-hFXR fusion construct, luciferase reporter in HEK293 cells; overnight incubation; response as percentage of 8 μM GW-4064 control
T1 construct: expressed in transfected cells; host or cells: HEK293 cells stably carrying a 5xGal4 response element-luciferase reporter, transiently transfected with pcDNA3.1-Gal4-FXR
T1 sequence (Q96RI1 262-486 limits assumed): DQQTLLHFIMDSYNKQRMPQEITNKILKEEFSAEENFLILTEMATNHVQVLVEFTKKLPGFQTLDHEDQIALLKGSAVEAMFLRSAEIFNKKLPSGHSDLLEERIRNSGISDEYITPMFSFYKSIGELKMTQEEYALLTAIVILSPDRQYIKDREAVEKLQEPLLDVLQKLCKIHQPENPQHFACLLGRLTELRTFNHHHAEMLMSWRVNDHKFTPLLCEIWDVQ
Outline: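 HEK293 cells stably carrying a 5×Gal4-response-element firefly luciferase reporter were transiently transfected with a Gal4 DBD-human FXR LBD fusion, then treated overnight with compounds at 37 °C. Steady-Glo luminescence, minus DMSO background, was expressed as percent of the response to 8 μM GW-4064.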

Row | Structure (SMILES) | EC50 [nM]
1 | CC(C)(C)c1nc(C23CCC(CN(C(=O)C45CC(F)(C4)C5)c4cccc(Nc5ccc(F)cc5)c4)(CC2)CC3)no1 [Example 88, N-((4-(5-(tert-butyl)-1,2,4-oxadiazol-3-yl)bicyclo[2.2.2]octan-1-yi)methyl)-3-fluoro-N-(3-((4-fluorophenyl)amino)phenyl)bicyclo[1.1.1]pentane-1-carboxamide] | 179
2 | COC(=O)CCc1cccc(N(CC23CCC(c4ccc(N(C)C)cc4)(CC2)CC3)C(=O)C2CCCCC2)c1 [Example 89, Methyl 3-(3-(N-((4-(4-(dimethylamino)phenyl)bicyclo[2.2.2]octan-1-yl)methyl)cyclohexanecarboxamido)phenyl)propanoate] | 1120
3 | CS(=O)(=O)c1cccc(N(CC23CCC(c4nc(C5CC5)no4)(CC2)CC3)C(=O)[C@H]2C[C@](O)(C(F)(F)F)C2)c1 [Example 90, (1S,3S)—N-((4-(3-cyclopropyl-1,2,4-oxadiazol-5-yl)bicyclo[2.2.2]octan-1-yl)methyl)-3-hydroxy-N-(3-(methylsulfonyl)phenyl)-3-(trifluoromethyl)cyclobutane-1-carboxamide] | 4000
4 | N#CC1(c2ccc(Nc3cccc(N(CC45CCC(c6noc(C7(F)CC7)n6)(CC4)CC5)C(=O)[C@H]4C[C@](O)(C(F)(F)F)C4)c3)cc2)CC1 [Example 91, (1S,3S)—N-(3-((4-(1-cyanocyclopropyl)phenyl)amino)phenyl)-N-((4-(5-(1-fluorocyclopropyl)-1,2,4-oxadiazol-3-yl)bicyclo[2.2.2]octan-1-yl)methyl)-3-hydroxy-3-(trifluoromethyl)cyclobutane-1-carboxamide] | 2190
5 | CC(C)(C#N)Oc1ccc(Nc2cccc(N(CC34CCC(c5ccc(C(C)(F)F)cn5)(CC3)CC4)C(=O)[C@H]3C[C@](O)(C(F)(F)F)C3)c2)cc1 [Example 92, (1S,3S)—N-(3-((4-((2-cyanopropan-2-yl)oxy)phenyl)amino)phenyl)-N-((4-(5-(1,1-difluoroethyl)pyridin-2-yl)bicyclo[2.2.2]octan-1-yl)methyl)-3-hydroxy-3-(trifluoromethyl)cyclobutane-1-carboxamide] | 2030
6 | CC(F)(F)c1ccc(C23CCC(CN(c4cccc(Nc5ccc(C6(C#N)CC6)cc5)c4)C(=O)[C@H]4C[C@](O)(C(F)(F)F)C4)(CC2)CC3)nc1 [Example 93, (1S,3S)—N-(3-((4-(1-cyanocyclopropyl)phenyl)amino)phenyl)-N-((4-(5-(1,1-difluoroethyl)pyridin-2-yl)bicyclo[2.2.2]octan-1-yl)methyl)-3-hydroxy-3-(trifluoromethyl)cyclobutane-1-carboxamide] | 1420
7 | CC(C)(C)c1noc(C23CCC(CN(C(=O)C45CC(F)(C4)C5)c4cncc(C#N)c4)(CC2)CC3)n1 [Example 94, N-((4-(3-(tert-butyl)-1,2,4-oxadiazol-5-yl)bicyclo[2.2.2]octan-1-yl)methyl)-N-(5-cyanopyridin-3-yl)-3-fluorobicyclo[1.1.1]pentane-1-carboxamide] | 1320

The next lines start with the values.

Row | EC50 [nM] | Structure (SMILES)
8 | 181 | CC(C)(F)c1nc(C23CCC(CN(C(=O)N[C@H]4CC[C@](C)(O)CC4)c4cccc(C#N)c4)(CC2)CC3)no1 [Example 95, 1-(3-cyanophenyl)-1-((4-(5-(2-fluoropropan-2-yl)-1,2,4-oxadiazol-3-yl)bicyclo[2.2.2]octan-1-yl)methyl)-3-((1R,4R)-4-hydroxy-4-methylcyclohexyl)urea]
9 | 1000 | CC(C)(CO)CNC(=O)N(CC12CCC(c3noc(C(C)(C)F)n3)(CC1)CC2)c1cccc(C#N)c1 [Example 97, 1-(3-cyanophenyl)-1-((4-(5-(2-fluoropropan-2-yl)-1,2,4-oxadiazol-3-yl)bicyclo[2.2.2]octan-1-yl)methyl)-3-(3-hydroxy-2,2-dimethylpropyl)urea]
10 | 230 | CC(F)(F)c1nc(C23CCC(CN(C(=O)N[C@H]4CC[C@H](O)CC4)c4cccc(C#N)c4)(CC2)CC3)no1 [Example 98, 1-(3-cyanophenyl)-1-((4-(5-(1,1-difluoroethyl)-1,2,4-oxadiazol-3-yl)bicyclo[2.2.2]octan-1-yl)methyl)-3-((1R,4R)-4-hydroxycyclohexyl)urea]
